Assay results: paper PMC6328587 (Nature Communications, 2019)
Several values for one entry are separate records, joined by “and”; a condition that tells them apart may be missing. Equal entries are not always repeated.

How the values were obtained:
p38δ = biological target: T1, p38δ (Homo sapiens, UniProt O15264); test: PROTAC-induced p38δ degradation, western blot in MDA-MB-231 cells; type: cell-based; details: 0.025-5.0 µM survey, ± one s.d., Supplementary Table 1; for DC50: biological duplicates
T1 construct: endogenous in cells; host or cells: MDA-MB-231
T1 sequence (O15264 1-365): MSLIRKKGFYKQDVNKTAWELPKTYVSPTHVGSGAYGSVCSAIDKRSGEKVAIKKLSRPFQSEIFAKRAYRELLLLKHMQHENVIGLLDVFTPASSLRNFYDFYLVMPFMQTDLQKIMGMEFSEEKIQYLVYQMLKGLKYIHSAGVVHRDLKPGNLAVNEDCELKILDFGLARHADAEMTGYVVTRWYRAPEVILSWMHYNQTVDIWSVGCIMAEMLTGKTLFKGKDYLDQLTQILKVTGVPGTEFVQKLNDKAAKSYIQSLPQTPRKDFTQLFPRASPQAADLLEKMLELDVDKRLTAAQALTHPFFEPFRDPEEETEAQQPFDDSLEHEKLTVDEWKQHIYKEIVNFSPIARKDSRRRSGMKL
Description: (§1) MDA-MB-231 and HeLa cells were obtained from the American Type Culture Collection (ATCC), cultured in RPMI-1640 medium (1 × ) and Dulbecco’s modified Eagle’s medium (DMEM; 1 × ), respectively, containing 10% fetal bovine serum and 1% penicillin–streptomycin and grown in a humidified incubator at 37 °C and 5% CO2.
(§2) […] once with ice-cold PBS (1 × ), followed by lysis in buffer containing 25 mM Tris [pH 7.5], 0.25% sodium deoxycholate, 1% Triton X-100, supplemented with 1X protease inhibitor cocktail (Roche), and phosphatase inhibitors (10 mM NaF, 1 mM Na3VO4, and 20 mM β-glycerophosphate), unless otherwise noted. Lysates were spun at 14,000 × g for 10 min at 4 °C and supernatant was evaluated for protein content using a Pierce BCA Protein Assay (ThermoFisher Scientific). In all experiments, 25–50 μg of protein was loaded onto 10% SDS-PAGE gels or 4–20% Criterion TGX precast gradient gels (Bio-Rad), transferred to nitrocellulose membranes, and probed with the specified antibodies overnight at 4 °C in 1X TBS-Tween (Tris-buffered saline plus 0.02% Tween 20) containing 5% non-fat milk. Immunoblots were visualized using a Bio-Rad ChemiDoc imaging instrument and subsequently processed and quantified using the accompanying Bio-Rad ImageLab software. See Supplementary Figure 8 for uncropped scans of western blots shown in the main text figures.
(§3) Western blot data in Figs. 2, 6, and Supplementary Figures 2, 3 were quantified by using the band feature in Image Lab (Bio-Rad). The p38 values were normalized to the α-tubulin signal to account for differences in protein load, and PROTAC-treated normalized values were expressed as a % of the vehicle-treated (no PROTAC) value, which itself was defined as 100% p38 protein level. […] The sigmoidal fit established both the full extent of degradation, or Dmax at the bottom asymptote of the curve, as well as the DC50, which is the inflection point at which 50% of the total degradation observed was reached.

p38α = biological target: T2, p38α (Homo sapiens, UniProt Q16539); test: PROTAC-induced p38α degradation, western blot in MDA-MB-231 cells; type: cell-based; details: 0.025-5.0 µM survey, ± one s.d., Supplementary Table 1; for DC50: biological duplicates
T2 construct: SJFα PROTAC (13-atom linker, amide attachment) selectively degrades p38α; endogenous in cells; host or cells: MDA-MB-231
T2 sequence (Q16539 whole entry): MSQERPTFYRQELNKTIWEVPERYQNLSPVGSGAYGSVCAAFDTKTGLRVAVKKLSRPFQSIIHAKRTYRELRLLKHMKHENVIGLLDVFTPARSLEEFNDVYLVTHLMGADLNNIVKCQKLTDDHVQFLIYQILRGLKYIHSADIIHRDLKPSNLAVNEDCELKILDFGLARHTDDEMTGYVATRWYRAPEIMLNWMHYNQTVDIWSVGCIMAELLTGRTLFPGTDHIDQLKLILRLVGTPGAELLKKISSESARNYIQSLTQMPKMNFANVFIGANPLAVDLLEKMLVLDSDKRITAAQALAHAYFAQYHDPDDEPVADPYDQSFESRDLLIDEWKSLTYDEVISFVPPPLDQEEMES
Description: as §1, §2, §3

## COc1cc2c(Oc3ccc(NC(=O)C4(C(=O)Nc5ccc(F)cc5)CC4)cc3F)ccnc2cc1OCCCOCCCOCCC(=O)N[C@H](C(=O)N1C[C@H](O)C[C@H]1C(=O)NCc1ccc(-c2scnc2C)cc1)C(C)(C)C
p38δ
  DC50: 456 ± 362 nM
p38α
  DC50: 230 ± 47 nM
  Dmax p38α (maximum percentage of degradation): 90.1 ± 4.2%

## COc1cc2c(Oc3ccc(NC(=O)C4(C(=O)Nc5ccc(F)cc5)CC4)cc3F)ccnc2cc1OCCCOCCOCCCOc1cc(-c2scnc2C)ccc1CNC(=O)C1CC(O)CN1C(=O)C(C(C)C)N1Cc2ccccc2C1=O (centres unmarked) [BES-4612]
p38δ
  DC50: 1890 ± 2350 nM
  Dmax p38δ (maximum percentage of degradation): 78.7 ± 40.8%
p38α
  DC50: 760 ± 1500 nM
  Dmax p38α (maximum percentage of degradation): 16.8 ± 13.4%

## COc1cc2c(Oc3ccc(NC(=O)C4(C(=O)Nc5ccc(F)cc5)CC4)cc3F)ccnc2cc1OCCCCOCCCCOc1cc(-c2scnc2C)ccc1CNC(=O)C1CC(O)CN1C(=O)C(C(C)C)N1Cc2ccccc2C1=O (centres unmarked) [SJF-6677]
p38δ
  DC50: 106 ± 81.5 nM
  Dmax p38δ (maximum percentage of degradation): < 50% and 43.5 ± 7.2%
p38α
  DC50: 127 ± 163 nM
  Dmax p38α (maximum percentage of degradation): < 50% and 25.3 ± 6.6%

## COc1cc2c(Oc3ccc(NC(=O)C4(C(=O)Nc5ccc(F)cc5)CC4)cc3F)ccnc2cc1OCCCOCCCOCCCOc1cc(-c2scnc2C)ccc1CNC(=O)C1CC(O)CN1C(=O)C(C(C)C)N1Cc2ccccc2C1=O (centres unmarked) [SJF-6685]
p38δ
  DC50: 1140 ± 1950 nM
  Dmax p38δ (maximum percentage of degradation): 33.5 ± 27.2%
p38α
  DC50: 304 ± 691 nM

## COc1cc2c(Oc3ccc(NC(=O)C4(C(=O)Nc5ccc(F)cc5)CC4)cc3F)ccnc2cc1OCCCOCCOCCC(=O)N[C@H](C(=O)N1C[C@H](O)C[C@H]1C(=O)NCc1ccc(-c2scnc2C)cc1)C(C)(C)C [SJF-6690]
p38δ
  DC50: < 100 nM and 91.7 nM
  Dmax p38δ (maximum percentage of degradation): 96.7 ± 3.7%
p38α
  Dmax p38α (maximum percentage of degradation): 99.4 ± 2.0%

## COc1cc2c(Oc3ccc(NC(=O)C4(C(=O)Nc5ccc(F)cc5)CC4)cc3F)ccnc2cc1OCCOCCOCCC(=O)N[C@H](C(=O)N1C[C@H](O)C[C@H]1C(=O)NCc1ccc(-c2scnc2C)cc1)C(C)(C)C [SJF-6693]
p38δ
  DC50: < 100 nM and 51.4 nM
  Dmax p38δ (maximum percentage of degradation): 81.8 ± 1.9%
p38α
  Dmax p38α (maximum percentage of degradation): 92.6 ± 2.8%
